{"source": "patent US10682337B2", "about": "“Compositions and methods for treatment and prevention of pyrexia in horses” (Kindred Biosciences, Inc., priority 2015, dated 2020)", "type_in_all_cases": "in vivo", "key": {"[1]": {"tested_on": "horses with naturally occurring respiratory infections", "assay": "pilot efficacy study of orally administered metamizole in horses with fever", "conditions": "of 8 horses; oral gel 30 mg/kg; ≥2° F. decrease or ≤101.0° F. 6 hours following dose", "experimental": "Metamizole, as an active ingredient, was formulated into a simple gel for oral administration and dosed at 30 mg/kg body weight. Eight horses with naturally occurring respiratory infections were provided. The temperatures of the horses were monitored. […] Horses were treated up to three times with an oral formulation of metamizole sodium. Rectal temperature was monitored to determine response to treatment. […] Pyrexia returned at timepoints appropriate for the drug's plasma residence time."}, "[2]": {"assay": "oral bioavailability of metamizole in horses (plasma 4-MAA)", "conditions": "four horses; 30 mg/kg; water slurry via nasogastric intubation vs IV Vetalgina; plasma 4-MAA up to 48 hours; FIG. 1", "experimental": "The commercially available Vetalgina product (Intervet) for IV administration (sodium salt) was administered in accordance with the manufacturer's instructions. Plasma was collected prior to administration and at specified intervals for up to 48 hours. Horses underwent a washout period, and then were administered the active ingredient (metamizole sodium monohydrate) in a water slurry to the horses' stomach via nasogastric intubation. Plasma was collected again prior to […] administration and at specified intervals for up to 48 hours. Horses were treated with matched doses on a milligram per kilogram basis for both test articles. Plasma was assayed for the primary metabolite of metamizole sodium, 4-methylaminoantipyrine (4-MAA)."}, "[3]": {"tested_on": "horses with clinical signs of infectious disease", "assay": "two-phase efficacy study of oral metamizole in mature horses", "experimental": "A two-phase study to determine the efficacy of oral metamizole in mature horses was conducted as follows. In the first phase, 9 horses with clinical signs of infectious disease were enrolled.\nIn the second phase, 8 horses with clinical signs of infectious disease were enrolled.\nThe oral formulation of metamizole used for both phases was an aqueous formulation comprising 500 mg/ml metamizole sodium monohydrate, 10 mg/ml xanthan gum, and 100 mg/ml propylene glycol, and 15 mg/ml benzyl alcohol. The formulation was adjusted to pH 7.8 using sodium hydroxide.\nFor both phases, rectal temperature was monitored at pre-determined intervals. Horses were redosed based on rectal temperature and minimum dosing intervals up to five additional times, for a total of six doses. Fever was required for redose with metamizole."}}}
{"smiles": "Cc1c(N(C)CS(=O)(=O)O)c(=O)n(-c2ccccc2)n1C", "note": "[metamizole sodium]", "values": [{"measurement": "horses with clinically significant improvement in rectal temperature", "setting": "[1]", "result": 8}]}
{"smiles": "Cc1c(N(C)CS(=O)(=O)O)c(=O)n(-c2ccccc2)n1C", "note": "[metamizole, [(2,3-dihydro-1,5-dimethyl-3-oxo-2-phenyl-1H-pyrazol-4-yl)methylamino] methanesulfonic acid]", "values": [{"measurement": "bioavailability, orally vs parenterally administered metamizole", "setting": "[2]", "result": "comparable bioavailability"}]}
{"smiles": "Cc1c(N(C)CS(=O)(=O)O)c(=O)n(-c2ccccc2)n1C", "note": "[metamizole sodium monohydrate]", "values": [{"measurement": "Adverse events", "setting": "[3]; 30 and 40 mg/kg oral, up to six doses", "result": "consistent with the underlying infections required for enrollment"}, {"measurement": "horses defined as primary responders after Dose 1", "setting": "[3]; Phase 2, 40 mg/kg oral", "result": "7/8"}, {"measurement": "horses defined as primary responders after Dose 1", "setting": "[3]; phase 1, 30 mg/kg oral", "result": "7/9"}]}
